{
  "source": "PubChem BioAssay AID732",
  "about": "(Emory University Molecular Libraries Screening Center, 2007)",
  "note": "Where “and” joins values, the source holds several entries; their conditions need not be identical. Equal values may be shown once. Calls of active or inactive are those of the source. No rule for the calls is given here.",
  "data": [
    {"test_system": "in vivo angiogenesis, blood vessel count", "test": "angiogenesis inhibition in living animals, in vivo study, HTS (AID 732);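 also: zebrafish embryos dosed at one day post fertilization; 0% = reference inhibitor and 100% = plate mean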", "conditions": "hits give low values;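 tested at 30 µM in the well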", "values": [
      {"smiles": "Cc1ccc(C(=O)O[C@H](C(=O)O)[C@H](OC(=O)c2ccc(C)cc2)C(=O)O)cc1", "note": "(tested in a mixture with another compound)", "vessel count % control": "109% (inactive)"},
      {"smiles": "CCOC(=O)C1=C(C)NC(C)=C(C(=O)OC)C1c1cccc([N+](=O)[O-])c1", "note": "(stereo unspecified)", "vessel count % control": "89.9% (inactive)"},
      {"smiles": "NC/C=C\\C(=O)O", "vessel count % control": "111% (inactive)"},
      {"smiles": "C=CCN1CC[C@]23CCCCC2[C@H]1Cc1ccc(O)cc13", "note": "(stereo partly specified)", "vessel count % control": "141% (inactive)"},
      {"smiles": "OC1(c2ccc(Cl)cc2)CCN(Cc2c[nH]c3ccccc23)CC1", "vessel count % control": "96.6% (inactive)"},
      {"smiles": "NNC(N)=O", "vessel count % control": "126% (inactive)"},
      {"smiles": "N[C@@H](CCl)C(=O)O", "vessel count % control": "101% (inactive)"},
      {"smiles": "N=C(N)c1ccc(N)cc1", "vessel count % control": "114% (inactive)"},
      {"smiles": "O=C1C=CC(=O)C=C1", "vessel count % control": "84.8% (inactive)"},
      {"smiles": "COc1cc2nc(N3CCN(C(=O)C4COc5ccccc5O4)CC3)nc(N)c2cc1OC", "note": "(stereo unspecified)", "vessel count % control": "103% (inactive)"},
      {"smiles": "N=C(N)c1ccccc1", "vessel count % control": "110% (inactive)"},
      {"smiles": "N=Nc1c(-c2c(O)[nH]c3c(Cl)cc(Cl)cc23)[nH]c2ccc(Br)cc12", "vessel count % control": "53.5% (inactive)"},
      {"smiles": "NCCc1ccc(O)c(O)c1", "vessel count % control": "91.6% (inactive)"},
      {"smiles": "Nc1ccn([C@@H]2O[C@H](CO)[C@@H](O)[C@@H]2O)c(=O)n1", "vessel count % control": "104% (inactive)"},
      {"smiles": "CN=C(N)NCCC[C@H](N)C(=O)O", "vessel count % control": "93% (inactive)"},
      {"smiles": "NCCCCN=C(N)N", "vessel count % control": "106% (inactive)"},
      {"smiles": "CCCOC(=O)c1c(-c2ccccc2)nc(CC)c(C(=O)SCC)c1CCC", "vessel count % control": "98% (inactive)"},
      {"smiles": "CC1Cc2cc3c(cc2C(c2ccc(N)cc2)=NN1)OCO3", "note": "(stereo unspecified)", "vessel count % control": "105% (inactive)"},
      {"smiles": "Cc1ccc(/C(=C\\CN2CCCC2)c2ccccn2)cc1", "vessel count % control": "80% (inactive)"},
      {"smiles": "NCCC1CCCC(CCN)N1", "note": "(stereo unspecified)", "vessel count % control": "115% (inactive)"},
      {"smiles": "COC(=O)c1cc2c(cn1)[nH]c1ccccc12", "vessel count % control": "92.7% (inactive)"},
      {"smiles": "O=C(c1cc(O)c(O)c([N+](=O)[O-])c1)c1ccccc1F", "vessel count % control": "116% (inactive)"},
      {"smiles": "O=C1NC(O)=NC1(c1ccccc1)c1ccccc1", "vessel count % control": "106% (inactive)"},
      {"smiles": "CC[N+](C)(C)c1cccc(O)c1", "vessel count % control": "114% (inactive)"},
      {"smiles": "O=c1[nH]c2ccccc2n1C1CCN(CCCC(c2ccc(F)cc2)c2ccc(F)cc2)CC1", "vessel count % control": "52.9% (inactive)"},
      {"smiles": "CCOC(=O)N1CCC(=C2c3ccc(Cl)cc3CCc3cccnc32)CC1", "vessel count % control": "103% (inactive)"},
      {"smiles": "C1CCc2nnnn2CC1", "vessel count % control": "79% (inactive)"},
      {"smiles": "C[N+](C)(C)CC=O", "vessel count % control": "104% (inactive)"},
      {"smiles": "CN(C)CCC=C1c2ccccc2C=Cc2ccccc21", "vessel count % control": "82.4% (inactive)"},
      {"smiles": "CCN(CC)C(=O)N[C@@H]1C[C@@H]2c3cccc4[nH]cc(c34)C[C@H]2N(C)C1", "vessel count % control": "111% (inactive)"},
      {"smiles": "CCCCc1ccc(C(=O)O)nc1", "vessel count % control": "115% (inactive)"},
      {"smiles": "CC(N)=NCc1cccc(CN)c1", "vessel count % control": "104% (inactive)"},
      {"smiles": "NC(N)=NOCC[C@H](N)C(=O)O", "vessel count % control": "94.1% (inactive)"},
      {"smiles": "CCCCNc1ccc(C(=O)OCCN(C)C)cc1", "vessel count % control": "100% (inactive)"},
      {"smiles": "COc1ccccc1N1CCN(CCN2C(=O)CC3(CCCC3)CC2=O)CC1", "vessel count % control": "89.5% (inactive)"},
      {"smiles": "CCOC(=O)Nc1ccc(NCc2ccc(F)cc2)nc1N", "vessel count % control": "83.6% (inactive)"},
      {"smiles": "CC(C)(C)NCC(O)c1ccccc1Cl", "note": "(stereo unspecified)", "vessel count % control": "130% (inactive)"},
      {"smiles": "CC(=O)SC1CC2=CC(=O)CC[C@]2(C)C2CC[C@@]3(C)C(CC[C@@]34CCC(=O)O4)C12", "note": "(stereo partly specified)", "vessel count % control": "85.3% (inactive)"},
      {"smiles": "Oc1ccc2c3c1O[C@H]1c4oc5ccccc5c4C[C@@]4(O)C(C2)N(CC2CC2)CCC314", "note": "(stereo partly specified)", "vessel count % control": "93.1% (inactive)"},
      {"smiles": "CC(=O)N[C@H](C(=O)O)C(C)(C)SN=O", "vessel count % control": "94.3% (inactive)"},
      {"smiles": "CCCCCC(O)CCCC(=O)O", "note": "(stereo unspecified)", "vessel count % control": "101% (inactive)"},
      {"smiles": "CC(=O)c1c(O)c(C)c(O)c(Cc2c(O)c3c(c(C(=O)/C=C/c4ccccc4)c2O)OC(C)(C)C=C3)c1O", "vessel count % control": "0% (inactive)"},
      {"smiles": "CCCCCCCCCCCCCCSCC(=O)O", "vessel count % control": "93.7% (inactive)"},
      {"smiles": "CCN(CC)CCNC(=O)c1ccc(N)cc1", "vessel count % control": "139% (inactive)"},
      {"smiles": "NC(N)=NC(=O)Cc1c(Cl)cccc1Cl", "vessel count % control": "119% (inactive)"},
      {"smiles": "CC(C)(Sc1ccc(CCN(CCCCC2CCCCC2)C(=O)NC2CCCCC2)cc1)C(=O)O", "vessel count % control": "103% (inactive)"},
      {"smiles": "CC(N)Cc1c[nH]c2ccc(O)cc12", "note": "(stereo unspecified)", "vessel count % control": "99.1% (inactive)"},
      {"smiles": "Cc1ccc([N+](=O)[O-])cc1S(=O)(=O)N(C)C", "vessel count % control": "108% (inactive)"},
      {"smiles": "OC(CN1CCC(Cc2ccc(F)cc2)CC1)c1ccc(Cl)cc1", "note": "(stereo unspecified)", "vessel count % control": "61.6% (inactive)"},
      {"smiles": "CCn1cc(C(=O)O)c(=O)c2ccc(C)nc21", "vessel count % control": "135% (inactive)"},
      {"smiles": "C[C@]12CC[C@H](O)CC1=CC[C@@H]1[C@@H]2CC[C@]2(C)C(=O)CC[C@@H]12", "vessel count % control": "106% (inactive)"},
      {"smiles": "O=c1c2ccccc2[se]n1-c1ccccc1", "vessel count % control": "94.8% (inactive)"},
      {"smiles": "NC12CC3CC(CC(C3)C1)C2", "vessel count % control": "110% (inactive)"},
      {"smiles": "CCCCC[C@H](CC(=O)NO)C(=O)N[C@H](C(=O)N1CCC[C@H]1CO)C(C)C", "vessel count % control": "103% (inactive)"},
      {"smiles": "CN1C2CCC1CC(OC(=O)C(CO)c1ccccc1)C2", "note": "(stereo unspecified)", "vessel count % control": "120% (inactive) and 116% (inactive)"},
      {"smiles": "CNCCCC1c2ccccc2C=Cc2ccccc21", "vessel count % control": "96% (inactive)"},
      {"smiles": "CCCN(CCC)[C@@H]1CCc2c(F)ccc(O)c2C1", "vessel count % control": "78.7% (inactive)"},
      {"smiles": "CCc1c(C)[nH]c2c1C(=O)C(CN1CCOCC1)CC2", "note": "(stereo unspecified)", "vessel count % control": "93.5% (inactive)"},
      {"smiles": "O=C1C(c2c(O)[nH]c3ccc(F)cc23)=Nc2ccccc21", "vessel count % control": "59% (inactive)"},
      {"smiles": "CN(C)CCCN1c2ccccc2Sc2ccc(Cl)cc21", "vessel count % control": "84.3% (inactive)"},
      {"smiles": "O=c1c(-c2ccc(O)cc2)coc2cc(O)ccc12", "vessel count % control": "105% (inactive)"},
      {"smiles": "CN(C)CCCO[C@@H]1[C@H]2OC(C)(C)O[C@H]2O[C@@H]1C(O)CO", "note": "(stereo partly specified)", "vessel count % control": "88% (inactive)"},
      {"smiles": "N[C@@H](CS(=O)O)C(=O)O", "vessel count % control": "111% (inactive)"},
      {"smiles": "CC(N)(C(=O)O)c1ccc(C(=O)O)cc1", "note": "(stereo unspecified)", "vessel count % control": "93.5% (inactive)"},
      {"smiles": "CC1COc2c(N3CCN(C)CC3)c(F)cc3c(=O)c(C(=O)O)cn1c23", "note": "(stereo unspecified)", "vessel count % control": "74.9% (inactive)"},
      {"smiles": "S=C(Nc1ccccc1)Nc1nccs1", "vessel count % control": "61.2% (inactive)"},
      {"smiles": "CO[C@@]1(NC(=O)CSCC#N)C(=O)N2C(C(=O)O)=C(CSc3nnnn3C)CS[C@@H]21", "vessel count % control": "122% (inactive)"},
      {"smiles": "O=C(O)C1CCNCC1", "vessel count % control": "99.7% (inactive)"},
      {"smiles": "COCc1nc2c([nH]1)c(=O)n(C)c(=O)n2CC(C)C", "vessel count % control": "93% (inactive)"},
      {"smiles": "CC(C)=CCC/C(C)=C/CC/C(C)=C/CSc1ccccc1C(=O)O", "vessel count % control": "78.4% (inactive)"},
      {"smiles": "CN(N=O)c1cc(O)ccc1O", "vessel count % control": "88% (inactive)"},
      {"smiles": "C[C@]12CC[C@@H]3c4ccc(O)cc4CC[C@H]3[C@@H]1CCC2=O", "vessel count % control": "111% (inactive)"},
      {"smiles": "O=c1onc2cnc3ccccc3n12", "vessel count % control": "95.4% (inactive)"},
      {"smiles": "COc1ccc2c(c1OC)C(=O)O[C@@H]2[C@H]1c2c(cc3c(c2OC)OCO3)CCN1C", "vessel count % control": "127% (inactive)"},
      {"smiles": "C[N+](C)(C)CC(=O)O", "vessel count % control": "94% (inactive)"},
      {"smiles": "Nc1ccc(CCN2CCN(c3cccc(C(F)(F)F)c3)CC2)cc1", "vessel count % control": "96.3% (inactive)"}
    ]}
  ]
}
